According to paper PMC7822874, “Chemoprotective antimalarials identified through quantitative high-throughput screening of Plasmodium blood and liver stage parasites” (Scientific Reports, 2021):

Test: in vitro
Conditions: human, hepg2-a16-cd81egfp cells
Note: reference of the scale not given here.

| Structure (SMILES) | viability at 3 µM (% viability) [%] | viability at 3 µM [%] |
| --- | --- | --- |
| Oc1cccc(Nc2nc(NCC3CCCO3)c3ccccc3n2)c1 (stereo not shown) [MLS000026845] | 95.5 |  |
| Oc1ccc(CN2CCCCC2)nc1-c1ccccc1 [MLS000031925] | 99.7 |  |
| Cc1ccc(NC(=O)N(Cc2ccc3c(c2)OCO3)Cc2cc3cc4c(cc3[nH]c2=O)OCCO4)cc1 [MLS000033889] | 101 |  |
| CCOC(=O)c1c(CN(C)C)oc2cc(CN(C)C)c(O)c(CSc3ccccc3)c12 [MLS000038262] | 104 |  |
| CN(C)Cc1c(O)ccc2oc(Cc3ccccc3)cc12 [MLS000039159] | 89.6 |  |
| Cc1ccc(O)c(-c2cc(C(=O)Nc3ccc(S(=O)(=O)N4CC(C)OC(C)C4)cc3)n[nH]2)c1 (stereo not shown) [MLS000042695] | 87.1 |  |
| Cc1cc(O)c(-c2cc(C(=O)Nc3ccc(S(=O)(=O)N4CCOCC4)cc3)[nH]n2)cc1C [MLS000042703] | 93.1 |  |
| CC(C)(C)Nc1nc(NC(C)(C)C)nc(-n2ccnc2)n1 [MLS000044025] | 90.9 |  |
| COc1ccccc1CNC(=O)CCn1c(=O)[nH]c2ccsc2c1=O [MLS000044764] | 109 |  |
| COc1cc(C2NCc3ccccc3-n3cccc32)ccc1O (stereo not shown) [MLS000047988] | 102 |  |
| c1ccc(-c2cccc(-c3ccccn3)n2)nc1 [MLS000048666] | 19.2 |  |
| COc1cccc(OCCn2cc(C(=O)c3ccco3)c3ccccc32)c1 [MLS000050800] |  | 106 |
| Cc1ccc(CNCc2cc3c(C(C)(C)C)nn(-c4ccccc4)c3[nH]c2=O)cc1 [MLS000067257] | 106 |  |
| Cc1ccc(-c2nn(-c3ccccc3)c3[nH]c(=O)c(CNCc4ccccc4)cc23)cc1 [MLS000067457] | 95.4 |  |
| Cc1cc(C)n(-c2nc(NC(C)C)nc(NC(C)C)n2)n1 [MLS000068521] | 105 |  |
| CCCc1c(CC)c(=N)c2ccccc2n1C [MLS000080101] | 83.6 |  |
| O=C(Nc1cccnc1)c1cn(-c2ccccc2)nc1-c1cccs1 [MLS000081870] | 100 |  |
| C=C(C)COc1ccc(-c2n[nH]cc2-c2ccc(OC)c(OC)c2)c(O)c1 [MLS000084580] | 42.4 |  |
| COc1ccc(OC)c(-n2c(-c3cccc(O)c3)n[nH]c2=S)c1 [MLS000089016] | 93.1 |  |
| COc1ccc2cc3cc(C(=O)NCC4CCCO4)oc3nc2c1 (stereo not shown) [MLS000091914] | 106 |  |
| CC(C)N1CC=C(c2c[nH]c3ccccc23)CC1 [MLS000093714] | 93.1 |  |
| Cc1ccc(-c2cc3c(nn2)-c2ccccc2C3=O)cc1 [MLS000104226] | 76.2 |  |
